Measured values: patent publication US11377442B2, “Small molecule agonists and antagonists of NR2F6 activity” (ZANDER THERAPEUTICS, INC., priority 2016, dated 2022)
Several values for one entry are separate records, joined by “and”; a condition that tells them apart may be missing. Equal values may be shown once. Read-outs that look alike come from different tables or passages of the source.

Assays:
Format in all cases: cell-based
NR2F6 LBD = biological target: T1, NR2F6 LBD (Homo sapiens, UniProt P10588); experiment: NR2F6 LBD transient transfection; conditions: LBD
T1 construct: expressed in transfected cells
T1 sequence (P10588 165-393 limits assumed): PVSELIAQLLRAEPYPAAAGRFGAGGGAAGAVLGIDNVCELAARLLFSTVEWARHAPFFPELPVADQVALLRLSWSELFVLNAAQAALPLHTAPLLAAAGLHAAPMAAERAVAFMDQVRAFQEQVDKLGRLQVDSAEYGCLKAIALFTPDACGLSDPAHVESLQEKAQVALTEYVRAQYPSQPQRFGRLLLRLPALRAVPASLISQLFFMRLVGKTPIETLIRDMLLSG
Procedure, shortened: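 LBD-transfected cells treated at 40, 10, 2 and 0.5 μM (4 replicates); cytotoxicity measured in parallel, normalized to DMSO (0%) and zero signal (100%). Higher concentrations excluded where signal loss reflected toxicity.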

HEK293 pGL4 = experiment: Firefly_pGL signal, cmpd/DMSO (pGL4 control cells); conditions: Homo sapiens
Renilla = Renilla signal in NR2F6 agonist screening, cmpd/DMSO; conditions: Renilla, F4
NR2F6 = biological target: T2, NR2F6 (Homo sapiens, UniProt P10588); experiment: NR2F6 agonist screening, Firefly signal cmpd/DMSO
T2 construct: expressed in transfected cells; also transient transfection
T2 sequence (P10588 1-404): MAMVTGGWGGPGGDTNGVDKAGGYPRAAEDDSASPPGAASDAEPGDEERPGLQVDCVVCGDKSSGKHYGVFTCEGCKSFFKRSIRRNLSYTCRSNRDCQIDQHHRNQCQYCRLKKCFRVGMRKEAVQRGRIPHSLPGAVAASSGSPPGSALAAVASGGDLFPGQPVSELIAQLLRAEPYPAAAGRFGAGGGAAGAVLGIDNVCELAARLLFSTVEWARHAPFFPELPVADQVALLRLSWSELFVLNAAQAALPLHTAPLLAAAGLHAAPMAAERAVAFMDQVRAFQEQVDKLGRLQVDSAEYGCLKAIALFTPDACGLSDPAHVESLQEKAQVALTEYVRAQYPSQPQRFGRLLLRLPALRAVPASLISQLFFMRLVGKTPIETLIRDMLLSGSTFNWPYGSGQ

[1] = HEK293, 0.5 uM, pGL4, read-out: Firefly pGL4, cmpd/DMSO (mean)
[2] = HEK293, 2 uM, pGL4, read-out: Firefly pGL4, cmpd/DMSO (mean)
[3] = HEK293, 10 uM, pGL4, read-out: Firefly pGL4, cmpd/DMSO (mean)
[4] = HEK293, 40 uM, pGL4, read-out: Firefly pGL4, cmpd/DMSO (mean)
[5] = HEK293, pGL4, 1% FBS, 0.5 uM, read-out: Firefly, pGL4, 1% FBS, cmpd/DMSO (mean)
[6] = HEK293, pGL4, 1% FBS, 2 uM, read-out: Firefly, pGL4, 1% FBS, cmpd/DMSO (mean)
[7] = HEK293, pGL4, 1% FBS, 10 uM, read-out: Firefly, pGL4, 1% FBS, cmpd/DMSO (mean)
[8] = HEK293, pGL4, 10% FBS, 0.5 uM, read-out: Firefly, pGL4, 10% FBS, cmpd/DMSO (mean)
[9] = HEK293, pGL4, 10% FBS, 2 uM, read-out: Firefly, pGL4, 10% FBS, cmpd/DMSO (mean)
[10] = HEK293, pGL4, 10% FBS, 10 uM, read-out: Firefly, pGL4, 10% FBS, cmpd/DMSO (mean)
[11] = read-out: Renilla, F4, cmpd/DMSO (mean)
[12] = 1% FBS, read-out: Renilla, F4, 1% FBS, cmpd/DMSO (mean)
[13] = 10% FBS, read-out: Renilla, F4, 10% FBS, cmpd/DMSO (mean)

## O=S1(=O)C[C@H](NC2CCCCC2)[C@@H](S(=O)(=O)c2ccc(Cl)cc2)C1 [Compound D124]
NR2F6 LBD; 0.5 uM
  Firefly LBD, cmpd/DMSO (mean): 1.4
NR2F6 LBD; 2 uM
  Firefly LBD, cmpd/DMSO (mean): 1.6
NR2F6 LBD; 10 uM
  Firefly LBD, cmpd/DMSO (mean): 3.6
NR2F6 LBD; 40 uM
  Firefly LBD, cmpd/DMSO (mean): 0.5
HEK293 pGL4; [1]
  fold induction at 0.5 µM: 1.4
HEK293 pGL4; [2]
  fold induction at 2 µM: 1.5
HEK293 pGL4; [3]
  fold induction at 10 µM: 3.1
HEK293 pGL4; [4]
  fold induction at 40 µM: 0.7
HEK293 pGL4; [5]
  fold induction at 0.5 µM: 1.1
HEK293 pGL4; [6]
  fold induction at 2 µM: 1.6
HEK293 pGL4; [7]
  fold induction at 10 µM: 2.4
HEK293 pGL4; HEK293, pGL4, 1% FBS, 40 uM, read-out: Firefly, pGL4, 1% FBS, cmpd/DMSO (mean)
  fold induction at 40 µM: 0.8
HEK293 pGL4; [8]
  fold induction at 0.5 µM: 1.2
HEK293 pGL4; [9]
  fold induction at 2 µM: 1.4
HEK293 pGL4; [10]
  fold induction at 10 µM: 2.2
HEK293 pGL4; HEK293, pGL4, 10% FBS, 40 uM, read-out: Firefly, pGL4, 10% FBS, cmpd/DMSO (mean)
  fold induction at 40 µM: 3.2
Renilla; [11]
  fold induction at 0.5 µM: 1.1
  fold induction at 2 µM: 1.2
  fold induction at 10 µM: 1.5
  fold induction at 40 µM: 1.8
Renilla; [12]
  fold induction at 0.5 µM: 1.1
  fold induction at 2 µM: 1.2
  fold induction at 10 µM: 1.5
  fold induction at 40 µM: 1.6
Renilla; [13]
  fold induction at 0.5 µM: 1
  fold induction at 2 µM: 1
  fold induction at 10 µM: 1.3
  fold induction at 40 µM: 2.6
NR2F6; 0.5 uM
  Firefly F4, cmpd/DMSO (mean): 1.6
NR2F6; 2 uM
  Firefly F4, cmpd/DMSO (mean): 1.3
NR2F6; 10 uM
  Firefly F4, cmpd/DMSO (mean): 4.6
NR2F6; 40 uM
  Firefly F4, cmpd/DMSO (mean): 2.1
NR2F6; 1% FBS, 10 uM
  F4, Firefly/Renilla for S/B(F4) > 3: 2.0
  Firefly, F4/pGL4 for S/B(F4) > 3: 1.3
  Firefly, F4, 1% FBS, cmpd/DMSO (mean): 3.1
NR2F6; 10% FBS, 40 uM
  F4, Firefly/Renilla for S/B(F4) > 3: 1.7
  Firefly, F4/pGL4 for S/B(F4) > 3: 1.4
  Firefly, F4, 10% FBS, cmpd/DMSO (mean): 4.5
NR2F6; 1% FBS, 0.5 uM
  Firefly, F4, 1% FBS, cmpd/DMSO (mean): 0.9
NR2F6; 1% FBS, 2 uM
  Firefly, F4, 1% FBS, cmpd/DMSO (mean): 1.9
NR2F6; 1% FBS, 40 uM
  Firefly, F4, 1% FBS, cmpd/DMSO (mean): 0.4
NR2F6; 10% FBS, 0.5 uM
  Firefly, F4, 10% FBS, cmpd/DMSO (mean): 1.2
NR2F6; 10% FBS, 2 uM
  Firefly, F4, 10% FBS, cmpd/DMSO (mean): 1.0
NR2F6; 10% FBS, 10 uM
  Firefly, F4, 10% FBS, cmpd/DMSO (mean): 2.3

## Cc1cccc(CN[C@H]2CS(=O)(=O)C[C@@H]2S(=O)(=O)c2ccc(Cl)cc2)c1 [Compound D127]
NR2F6 LBD; 0.5 uM
  Firefly LBD, cmpd/DMSO (mean): 1.2
NR2F6 LBD; 2 uM
  Firefly LBD, cmpd/DMSO (mean): 1.2
NR2F6 LBD; 10 uM
  Firefly LBD, cmpd/DMSO (mean): 2.3
NR2F6 LBD; 40 uM
  Firefly LBD, cmpd/DMSO (mean): 2.1
HEK293 pGL4; [1]
  fold induction at 0.5 µM: 1
HEK293 pGL4; [2]
  fold induction at 2 µM: 1.4
HEK293 pGL4; [3]
  fold induction at 10 µM: 1.8
HEK293 pGL4; [4]
  fold induction at 40 µM: 2.6
HEK293 pGL4; [5]
  fold induction at 0.5 µM: 1.3
HEK293 pGL4; [6]
  fold induction at 2 µM: 1.9
HEK293 pGL4; [7]
  fold induction at 10 µM: 2.7
HEK293 pGL4; [8]
  fold induction at 0.5 µM: 1.2
HEK293 pGL4; [9]
  fold induction at 2 µM: 1.7
HEK293 pGL4; [10]
  fold induction at 10 µM: 2.7
Renilla; [11]
  fold induction at 0.5 µM: 1
  fold induction at 2 µM: 1
  fold induction at 10 µM: 1.2
  fold induction at 40 µM: 1.3
Renilla; [12]
  fold induction at 0.5 µM: 1.1
  fold induction at 2 µM: 1.2
  fold induction at 10 µM: 1.8
  fold induction at 40 µM: 1.5
Renilla; [13]
  fold induction at 0.5 µM: 1
  fold induction at 2 µM: 1.1
  fold induction at 10 µM: 1.7
NR2F6; 0.5 uM
  Firefly F4, cmpd/DMSO (mean): 1.2
NR2F6; 2 uM
  Firefly F4, cmpd/DMSO (mean): 1.1
NR2F6; 10 uM
  Firefly F4, cmpd/DMSO (mean): 2.2
NR2F6; 40 uM
  Firefly F4, cmpd/DMSO (mean): 2.0
NR2F6; 1% FBS, 10 uM
  F4, Firefly/Renilla for S/B(F4) > 3: 2.7
  Firefly, F4/pGL4 for S/B(F4) > 3: 1.8
NR2F6; 1% FBS, 40 uM
  F4, Firefly/Renilla for S/B(F4) > 3: 1.9
  Firefly, F4/pGL4 for S/B(F4) > 3: 2.4
NR2F6; 10% FBS, 10 uM
  F4, Firefly/Renilla for S/B(F4) > 3: 3.2
  Firefly, F4/pGL4 for S/B(F4) > 3: 2.1
NR2F6; 10% FBS, 40 uM
  F4, Firefly/Renilla for S/B(F4) > 3: 2.1
  Firefly, F4/pGL4 for S/B(F4) > 3: 2.3
NR2F6; 1% FBS, 0.5 uM
  Firefly, F4, 1% FBS, cmpd/DMSO (mean): 1.0 and 1.3
NR2F6; 1% FBS, 2 uM
  Firefly, F4, 1% FBS, cmpd/DMSO (mean): 1.8 and 0.9
NR2F6; 10% FBS, 0.5 uM
  Firefly, F4, 10% FBS, cmpd/DMSO (mean): 1.2
NR2F6; 10% FBS, 2 uM
  Firefly, F4, 10% FBS, cmpd/DMSO (mean): 1.4 and 0.7
